# Results: PMC3723632, “A Multi-targeted Drug Candidate with Dual Anti-HIV and Anti-HSV Activity” (PLoS Pathogens, 2013)
# Where two headings read alike, the source gives them in different places.
# Experiments:
# [1] = target: T1, HIV-1 RT (Human immunodeficiency virus type 1 group M subtype B, UniProt P03366); experiment: HIV-1 reverse transcriptase assay; assay type: biochemical; settings: poly rU.dA primer/template
# T1 construct: 4 µl of recombinant HIV-1 RT
# Procedure: […] In the HSV DNA polymerase assays, the inhibitory effect of adefovir-pp or PMEA-DAPym-pp on herpesvirus DNA polymerase-catalyzed polymerization was also determined in the presence of radiolabeled [^3H]dGTP (1 mCi/ml; 2.8 µM), [^3H]dTTP (1 mCi/ml; 1 µM), or [^3H]dCTP (1 mCi/ml; 2.5 µM) as competing dNTP in the presence of 0.8 µl (5 mM) of the other dNTPs in the reaction mixture as described above. The reaction was started by the addition of 4 µl of recombinant HSV-1 DNA polymerase (kindly provided by M.W. Wathen, at that time at Pfizer, Kalamazoo, MI) or 4 µl of recombinant HIV-1 RT (in 20 mM Tris.HCl, pH 8.0; 1 mM DTT; 0.1 mM EDTA; 0.2 M NaCl; 40% glycerol), and the reaction mixture was incubated for 60 min (HSV-1 DNA polymerase) or 30 min (HIV-1 RT) at 37°C. Then, 1 ml of ice-cold 5% TCA in 0.02 M Na4P2O7.10 H2O was added to terminate the polymerisation reaction, after which the acid-insoluble precipitate (radiolabeled DNA) was captured onto Whatman glass fiber filters (type GF/C; GE Healthcare UK Limited, Buckinghamshire, UK) and further washed with 5% TCA and ethanol to remove free radiolabeled dNTP. Radioactivity was determined in a Perkin Elmer Tri-Carb 2810 TR liquid scintillation counter.
# [2] = target: T2, HSV DNA polymerase (Human herpesvirus 1, UniProt P04293); experiment: HSV DNA polymerase assay; assay type: biochemical
# T2 construct: gift of M.W. Wathen (Pfizer, Kalamazoo, MI)
# T2 sequence (P04293 whole entry): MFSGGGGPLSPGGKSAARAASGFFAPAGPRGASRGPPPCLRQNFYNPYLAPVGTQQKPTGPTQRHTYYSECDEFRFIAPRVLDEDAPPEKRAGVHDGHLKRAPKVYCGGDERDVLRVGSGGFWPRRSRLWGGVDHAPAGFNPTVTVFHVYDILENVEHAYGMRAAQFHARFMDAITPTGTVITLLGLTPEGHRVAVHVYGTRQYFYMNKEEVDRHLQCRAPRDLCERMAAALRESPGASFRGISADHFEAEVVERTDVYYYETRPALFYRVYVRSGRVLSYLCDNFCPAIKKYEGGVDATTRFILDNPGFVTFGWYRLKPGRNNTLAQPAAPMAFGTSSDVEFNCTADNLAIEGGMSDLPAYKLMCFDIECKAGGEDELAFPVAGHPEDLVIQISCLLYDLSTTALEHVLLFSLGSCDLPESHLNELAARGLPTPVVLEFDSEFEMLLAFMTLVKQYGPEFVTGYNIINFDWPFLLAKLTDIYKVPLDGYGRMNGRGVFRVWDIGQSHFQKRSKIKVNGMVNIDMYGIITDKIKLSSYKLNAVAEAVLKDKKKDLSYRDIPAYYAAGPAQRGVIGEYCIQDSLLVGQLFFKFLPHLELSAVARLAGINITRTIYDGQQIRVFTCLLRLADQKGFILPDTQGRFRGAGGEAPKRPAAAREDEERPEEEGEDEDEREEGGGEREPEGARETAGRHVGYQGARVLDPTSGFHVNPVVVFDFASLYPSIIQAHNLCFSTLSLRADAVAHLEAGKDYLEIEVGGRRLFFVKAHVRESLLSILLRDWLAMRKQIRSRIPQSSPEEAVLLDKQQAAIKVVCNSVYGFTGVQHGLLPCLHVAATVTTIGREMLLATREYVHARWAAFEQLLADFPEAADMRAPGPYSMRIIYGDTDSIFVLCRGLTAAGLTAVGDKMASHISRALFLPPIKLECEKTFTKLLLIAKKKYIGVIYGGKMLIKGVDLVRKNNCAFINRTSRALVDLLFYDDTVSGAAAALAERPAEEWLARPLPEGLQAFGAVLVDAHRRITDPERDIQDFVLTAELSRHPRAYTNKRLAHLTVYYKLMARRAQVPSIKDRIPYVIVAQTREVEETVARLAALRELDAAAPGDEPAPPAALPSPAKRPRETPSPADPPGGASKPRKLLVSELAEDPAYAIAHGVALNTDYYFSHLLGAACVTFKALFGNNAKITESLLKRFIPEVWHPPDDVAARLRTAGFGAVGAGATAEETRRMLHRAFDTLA
# Procedure: The reaction mixture (40 µl) for the HSV-1 DNA polymerase and HIV-1 RT assays contained 4 µl of Premix (200 mM Tris.HCl, pH 7.5; 2 mM DTT; 30 mM MgCl2), 4 µl of BSA (5 mg/ml), 1.6 µl of activated calf thymus DNA (1.25 mg/ml), 0.8 µl of dCTP (5 mM), 0.8 µl of dTTP (5 mM), 0.8 µl of dGTP (5 mM), 2 µl of radiolabeled [^3H]dATP (1 mCi/ml) (3.2 µM), 18 µl of H2O, and 4 µl of adefovir-pp or PMEO-DAPym-pp at different concentrations (i.e., 200, 20, 2, and 0.2 µM). In the HSV DNA polymerase assays, the inhibitory effect of adefovir-pp or PMEA-DAPym-pp on herpesvirus DNA polymerase-catalyzed polymerization was also determined in the presence of radiolabeled [^3H]dGTP (1 mCi/ml; 2.8 µM), [^3H]dTTP (1 mCi/ml; 1 µM), or [^3H]dCTP (1 mCi/ml; 2.5 µM) as competing dNTP in the presence of 0.8 µl (5 mM) of the other dNTPs in the reaction mixture as described above. The reaction was started by the addition of 4 µl of recombinant HSV-1 DNA polymerase (kindly provided by M.W. Wathen, at that time at Pfizer, Kalamazoo, MI) or 4 µl of recombinant HIV-1 RT (in 20 mM Tris.HCl, pH 8.0; 1 mM DTT; 0.1 mM EDTA; 0.2 M NaCl; 40% glycerol), and the reaction mixture was incubated for 60 min (HSV-1 DNA polymerase) or 30 min (HIV-1 RT) at 37°C. Then, 1 ml of ice-cold 5% TCA in 0.02 M Na4P2O7.10 H2O was added to terminate the polymerisation reaction, after which the acid-insoluble precipitate (radiolabeled DNA) was captured onto Whatman glass fiber filters (type GF/C; GE Healthcare UK Limited, Buckinghamshire, UK) and further washed with 5% TCA and ethanol to remove free radiolabeled dNTP. Radioactivity was determined in a Perkin Elmer Tri-Carb 2810 TR liquid scintillation counter.
Compound,IC50 ([1]; dATP (3.2 µM) as competing substrate),"IC50 ([2]; [3H]dATP as competing substrate, gapped calf thymus DNA)","IC50 ([2]; [3H]dCTP as competing substrate, gapped calf thymus DNA)","IC50 ([2]; [3H]dGTP as competing substrate, gapped calf thymus DNA)","IC50 ([2]; [3H]dTTP as competing substrate, gapped calf thymus DNA)","IC50, incorporation of other [3H]dNTPs ([2]; dCTP, dGTP, dTTP, range)","IC50 ([1]; IC50, dATP (3.2 µM) as competing substrate)","IC50 ([2]; [3H]dATP as competing substrate, gapped calf thymus DNA, read-out: IC50 (converted))","IC50 ([2]; [3H]dCTP as competing substrate, gapped calf thymus DNA, read-out: IC50 (converted))","IC50 ([2]; [3H]dGTP as competing substrate, gapped calf thymus DNA, read-out: IC50 (converted))","IC50 ([2]; [3H]dTTP as competing substrate, gapped calf thymus DNA, read-out: IC50 (converted))","IC50 ([2]; dCTP, dGTP, dTTP, range, read-out: IC50, incorporation of other [3H]dNTPs)"
C[C@@H](Cn1cnc2c(N)ncnc21)OCP(=O)(O)OP(=O)(O)OP(=O)(O)O [Tenofovir-pp],0.43 ± 0.21 µg/mL,0.48 ± 0.04 µg/mL,32 ± 2.2 µg/mL,8.9 ± 6.3 µg/mL,11 ± 4.8 µg/mL,8.9 to 32 µg/mL,,,,,,
Nc1ncnc2c1ncn2CCOCP(=O)(O)OP(=O)(O)OP(=O)(O)O [Adefovir-pp],,,,,,,0.923 µM,0.993 µM,3.92 µM,3.46 µM,4.85 µM,3.46 to 4.85 µM
